Results on 33 molecules are retold here after patent publication US9458110B2, “Phenylpyrazole derivatives as potent ROCK1 and ROCK2 inhibitors” (BRISTOL-MYERS SQUIBB COMPANY, priority 2013, dated 2016).

The subject of one assay is neointimal formation. The following applies: rats, balloon injury model; cited from earlier work.
In assay [1] the test system is congestive heart failure in Dahl salt-sensitive rats. The following applies: cited from earlier work.
Assay [2] concerns rat models of hypertension. The settings on record: cited from earlier work.
In assay [3] the test system is IL-1 beta-induced coronary stenosis. The following applies: long term treatment; cited from earlier work.
Another assay deals with ROCK2 (Homo sapiens (Human), UniProt O75116). Put plainly: ROCK assay (Caliper LABCHIP peptide phosphorylation), ROCK2.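 Also: reaction stopped with EDTA, then phosphorylated and unphosphorylated peptide resolved by microfluidic electrophoresis, kinase inhibition computed at each compound concentration in dose-response series, DMSO under 2%.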 Format: biochemical. The following applies: 5 μM ATP, 1.5 μM peptide substrate.
Sequence of ROCK2 (O75116 whole entry, species assumed): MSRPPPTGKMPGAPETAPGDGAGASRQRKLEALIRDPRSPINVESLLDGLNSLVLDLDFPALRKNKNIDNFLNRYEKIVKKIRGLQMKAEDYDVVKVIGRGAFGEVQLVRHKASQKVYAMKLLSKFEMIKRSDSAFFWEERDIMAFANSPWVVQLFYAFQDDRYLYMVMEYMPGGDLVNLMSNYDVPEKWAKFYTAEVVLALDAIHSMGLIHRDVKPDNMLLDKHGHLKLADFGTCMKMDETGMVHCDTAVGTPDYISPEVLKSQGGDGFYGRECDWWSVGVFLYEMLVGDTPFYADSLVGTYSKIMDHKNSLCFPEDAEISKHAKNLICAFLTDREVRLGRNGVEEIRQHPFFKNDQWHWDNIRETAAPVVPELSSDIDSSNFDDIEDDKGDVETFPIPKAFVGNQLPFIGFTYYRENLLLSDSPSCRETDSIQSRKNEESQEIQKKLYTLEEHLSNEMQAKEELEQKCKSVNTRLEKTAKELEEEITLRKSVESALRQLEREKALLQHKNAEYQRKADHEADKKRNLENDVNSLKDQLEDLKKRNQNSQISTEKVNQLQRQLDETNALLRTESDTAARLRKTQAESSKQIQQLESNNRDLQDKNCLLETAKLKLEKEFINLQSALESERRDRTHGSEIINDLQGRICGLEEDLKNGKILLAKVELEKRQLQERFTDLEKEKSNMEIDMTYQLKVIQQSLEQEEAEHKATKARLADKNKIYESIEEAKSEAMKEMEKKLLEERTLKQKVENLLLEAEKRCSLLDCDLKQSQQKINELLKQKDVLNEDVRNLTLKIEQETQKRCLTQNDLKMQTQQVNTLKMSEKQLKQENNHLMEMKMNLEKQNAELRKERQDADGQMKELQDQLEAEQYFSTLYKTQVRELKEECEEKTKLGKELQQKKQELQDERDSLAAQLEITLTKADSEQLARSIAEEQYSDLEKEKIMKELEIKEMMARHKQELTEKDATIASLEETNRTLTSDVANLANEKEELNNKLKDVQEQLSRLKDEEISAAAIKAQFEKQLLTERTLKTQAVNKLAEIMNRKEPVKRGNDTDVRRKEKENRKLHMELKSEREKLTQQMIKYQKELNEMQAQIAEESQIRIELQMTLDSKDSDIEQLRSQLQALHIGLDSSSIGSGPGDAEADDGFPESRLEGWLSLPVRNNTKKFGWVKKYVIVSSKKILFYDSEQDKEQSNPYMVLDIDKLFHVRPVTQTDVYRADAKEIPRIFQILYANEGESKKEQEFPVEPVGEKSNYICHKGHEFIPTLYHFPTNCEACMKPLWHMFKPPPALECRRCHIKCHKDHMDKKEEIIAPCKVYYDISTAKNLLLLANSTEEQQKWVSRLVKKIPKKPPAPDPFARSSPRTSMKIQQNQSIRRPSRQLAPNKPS
A further assay concerns the target ROCK1 (Homo sapiens (Human), UniProt Q13464). In words: ROCK assay (Caliper LABCHIP peptide phosphorylation), ROCK1.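 Also: Read-out is separation of phosphorylated from unphosphorylated peptide, with kinase activity inhibition computed at every concentration of a dose-response series.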 The following applies: 5 μM ATP, 1.5 μM peptide substrate. Format: biochemical.

Like-named read-outs stand apart in the source and are kept apart here.

Sequence of ROCK1 (Q13464 whole entry, species assumed): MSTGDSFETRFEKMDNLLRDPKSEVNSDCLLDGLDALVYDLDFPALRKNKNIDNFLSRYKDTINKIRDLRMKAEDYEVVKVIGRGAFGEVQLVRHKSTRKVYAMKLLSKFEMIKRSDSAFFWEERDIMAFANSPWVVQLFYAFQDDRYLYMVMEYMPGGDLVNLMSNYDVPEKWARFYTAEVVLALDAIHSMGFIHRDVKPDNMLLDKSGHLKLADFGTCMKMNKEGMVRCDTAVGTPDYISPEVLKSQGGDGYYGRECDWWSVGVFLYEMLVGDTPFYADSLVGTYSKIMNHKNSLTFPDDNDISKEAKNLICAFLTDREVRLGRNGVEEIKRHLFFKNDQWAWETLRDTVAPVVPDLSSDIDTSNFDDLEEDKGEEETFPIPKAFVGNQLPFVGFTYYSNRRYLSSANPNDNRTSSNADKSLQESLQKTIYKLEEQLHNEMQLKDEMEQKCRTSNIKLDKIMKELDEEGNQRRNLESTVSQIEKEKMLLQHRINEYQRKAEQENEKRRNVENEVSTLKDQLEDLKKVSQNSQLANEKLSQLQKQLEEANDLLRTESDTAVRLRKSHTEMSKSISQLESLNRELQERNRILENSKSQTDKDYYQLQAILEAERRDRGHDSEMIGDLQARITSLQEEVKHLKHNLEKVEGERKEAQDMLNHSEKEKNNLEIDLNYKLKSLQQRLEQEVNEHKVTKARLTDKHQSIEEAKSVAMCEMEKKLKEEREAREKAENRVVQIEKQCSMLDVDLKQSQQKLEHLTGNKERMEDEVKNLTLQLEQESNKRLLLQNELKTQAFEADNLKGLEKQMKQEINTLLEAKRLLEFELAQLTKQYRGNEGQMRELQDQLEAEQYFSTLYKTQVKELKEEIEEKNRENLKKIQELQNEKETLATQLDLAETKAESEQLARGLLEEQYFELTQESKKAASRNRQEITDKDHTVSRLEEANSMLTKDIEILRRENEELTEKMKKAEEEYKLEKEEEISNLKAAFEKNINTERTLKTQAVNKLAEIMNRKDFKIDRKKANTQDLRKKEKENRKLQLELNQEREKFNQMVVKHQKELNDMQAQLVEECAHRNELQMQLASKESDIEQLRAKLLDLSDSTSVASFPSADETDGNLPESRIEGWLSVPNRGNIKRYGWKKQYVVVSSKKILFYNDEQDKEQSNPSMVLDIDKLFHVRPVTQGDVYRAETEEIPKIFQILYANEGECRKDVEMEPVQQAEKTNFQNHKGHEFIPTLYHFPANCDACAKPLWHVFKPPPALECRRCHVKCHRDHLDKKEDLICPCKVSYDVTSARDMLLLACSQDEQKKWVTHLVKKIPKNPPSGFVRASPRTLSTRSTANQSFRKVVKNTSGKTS

As to `C[C@@H](N)[C@H]1CC[C@H](C(=O)Nc2ccncc2)CC1` [Example Y-27632], in the assay on neointimal formation, the neointimal formation result was “inhibited neointimal formation”. Also, the “ventricular hypertrophy, fibrosis and function” value in assay [1] is “improve ventricular hypertrophy, fibrosis and function”. The blood pressure result was “only a minor effect on blood pressure” in assay [2] (control rats); “significantly decrease blood pressure” in assay [2] (spontaneously hypertensive rat, renal hypertensive rat and deoxycortisone acetate salt hypertensive rat models).

On to `O=S(=O)(c1cccc2cnccc12)N1CCCNCC1` [fasudil], for which the “coronary stenosis and coronary constrictive remodeling” value in assay [3] is recorded as “progressively reduce coronary stenosis, as well as promote a regression of coronary constrictive remodeling”.

Take `COc1cc(C(=O)NCc2ccccc2O)ccc1-c1cn[nH]c1` [Example 31, N-(2-hydroxybenzyl)-3-methoxy-4-(1H-pyrazol-4-yl)benzamide]: the IC50 (in general, the concentration needed to halve the response being measured) is 5.62 nM against ROCK2 and 9.2 nM against ROCK1.

As for `COc1cc(-c2cn[nH]c2)cc(F)c1C(=O)N[C@H](C)c1ccccc1` [Example 312, 2-fluoro-6-methoxy-N-[(1R)-1-phenylethyl]-4-(1H-pyrazol-4-yl)benzamide], the IC50 at ROCK2 is 1490 nM; against ROCK1, above 2000 nM.

`COc1cc(C(=O)NC(CN2CCCC2)c2ccccc2)ccc1-c1cn[nH]c1` (stereo not shown) [Example 14, 3-methoxy-N-(1-phenyl-2-(pyrrolidin-1-yl)ethyl)-4-(1H-pyrazol-4-yl)benzamide]: the IC50 on ROCK2 is 86.4 nM; against ROCK1, 243 nM.

Regarding `COc1cc(C(=O)NCc2ccc(F)c(C(=O)O)c2)ccc1-c1cn[nH]c1` [Example 242, 2-fluoro-5-({[3-methoxy-4-(1H-pyrazol-4-yl)phenyl] formamido}methyl) benzoic acid], the figures for the IC50 against ROCK2 and on ROCK1 were 4.41 nM and 39.2 nM, respectively.

With `COc1cccc([C@@H](C)NC(=O)c2ccc(-c3cn[nH]c3)cc2F)c1` [Example 62, (R)-2-Fluoro-N-(1-(3-methoxyphenyl)ethyl)-4-(1H-pyrazol-4-yl)benzamide], the IC50 came out at 8.87 nM against ROCK2 and 43.3 nM on ROCK1.

In the case of `CCS(=O)(=O)NC[C@@H](NC(=O)c1ccc(-c2cn[nH]c2)c(OC)c1)c1ccccc1` [Example 262, N-[(1S)-2-ethane-sulfonamido-1-phenylethyl]-3-methoxy-4-(1H-pyrazol-4-yl)benzamide], the figures for the IC50 at ROCK2 and against ROCK1 were 36 nM and 55.2 nM, respectively.

Consider `COc1cccc(CNC(=O)c2ccc(-c3cn[nH]c3)cc2OC)c1` [Example 54, 2-methoxy-N-(3-methoxybenzyl)-4-(1H-pyrazol-4-yl)benzamide], for which the IC50 against ROCK2 worked out at 4.81 nM; on ROCK1, 21.3 nM.

For the molecule `COc1cc(C(=O)NCc2cccc(Cl)c2Cl)ccc1-c1cn[nH]c1` [Example 29, N-(2,3-dichlorobenzyl)-3-methoxy-4-(1H-pyrazol-4-yl)benzamide], the IC50 was 2.53 nM on ROCK2 and 5.77 nM at ROCK1.

Consider `COc1cc(-c2cn[nH]c2)ccc1C(=O)N[C@@H](c1ccccc1)[C@H](O)CO` [Example 225, N-[(1S,2S)-2,3-dihydroxy-1-phenylpropyl]-2-methoxy-4-(1H-pyrazol-4-yl)benzamide], for which the IC50 came to 1.09 nM against ROCK2 and 7.59 nM on ROCK1.

On to `CC(NC(=O)c1ccc(-c2cn[nH]c2)c(C(F)F)c1)c1ccccc1F` (racemic) [Example 299, 3-(Difluoromethyl)-N-(1-(2-fluorophenyl)ethyl)-4-(1H-pyrazol-4-yl)benzamide], for which the figures for the IC50 against ROCK2 and against ROCK1 were 53.3 nM and 110 nM, respectively.

As to `COc1cc(-c2cn[nH]c2)ccc1C(=O)N[C@H](CO)c1c(F)cccc1F` [Example 201, N-[(1S)-1-(2,6-difluorophenyl)-2-hydroxyethyl]-2-methoxy-4-(1H-pyrazol-4-yl)benzamide], the IC50 turned out to be 11.5 nM at ROCK2 and 362 nM against ROCK1.

Regarding `COc1cc(C(=O)NCc2cccc(S(N)(=O)=O)c2)ccc1-c1cn[nH]c1` [Example 231, 3-methoxy-4-(1H-pyrazol-4-yl)-N-[(3-sulfamoyl-phenyl)methyl] benzamide], the figures for the IC50 against ROCK2 and at ROCK1 were 0.99 nM and 15.2 nM, respectively.

For the molecule `COc1cc(C(=O)NCc2ccc(Oc3ccccc3)cc2Cl)ccc1-c1cn[nH]c1` [Example 48, N-(2-chloro-4-phenoxybenzyl)-3-methoxy-4-(1H-pyrazol-4-yl)benzamide], the IC50 against ROCK2 is 1320 nM; on ROCK1, 663 nM.

In the case of `COc1cc(C(=O)N[C@H](CNC(C)=O)c2ccccc2)ccc1-c1cn[nH]c1` [Example 259, N-[(25)-2-{[3-methoxy-4-(1H-pyrazol-4-yl)phenyl] formamido}-2-phenylethyl] acetamide], the IC50 against ROCK2 turned out to be 9.37 nM; at ROCK1, 23.6 nM.

With `COc1cc(C(=O)NCc2cccc(CN(C)C)c2)ccc1-c1cn[nH]c1` [Example 85, N-({3-[(dimethylamino)methyl]phenyl}methyl)-3-methoxy-4-(1H-pyrazol-4-yl)benzamide], the IC50 came out at 474 nM against ROCK2 and 2510 nM against ROCK1.

Regarding `CC(O)c1cc(C(=O)NC(C)c2c(F)cccc2F)ccc1-c1cn[nH]c1` (stereo not shown) [Example 288, N-[1-(2,6-difluorophenyl)ethyl]-3-(1-hydroxyethyl)-4-(1H-pyrazol-4-yl)benzamide], the IC50 at ROCK2 was determined as 446 nM; at ROCK1 it was 150 nM.

For the molecule `C[C@@H](NC(=O)c1ccc(-c2cn[nH]c2)c(S(C)(=O)=O)c1)c1ccccc1` [Example 188, 3-methanesulfonyl-N-[(1R)-1-phenylethyl]-4-(1H-pyrazol-4-yl)benzamide], the figures for the IC50 at ROCK2 and on ROCK1 were 208 nM and above 2000 nM, respectively.

As for `COc1cc(C(=O)NCc2cccc(C(=O)NC3CCN(C)CC3)c2)ccc1-c1cn[nH]c1` [Example 248, 3-methoxy-N-({3-[(1-methylpiperidin-4-yl)carbamoyl]phenyl}methyl)-4-(1H-pyrazol-4-yl)benzamide], the IC50 against ROCK2 came to 0.19 nM; on ROCK1, 0.43 nM.

With `COc1cc(C(=O)NCc2cccc(C(=O)NCC3CC3)c2)ccc1-c1cn[nH]c1` [Example 236, N-({3-[(cyclopropyl-methyl)carbamoyl]phenyl}methyl)-3-methoxy-4-(1H-pyrazol-4-yl)benzamide], the IC50 on ROCK2 stood at 0.37 nM; against ROCK1, 1.79 nM.

As to `COc1cc(C(=O)NCc2cccc3[nH]ncc23)ccc1-c1cn[nH]c1` [Example 86, N-(1H-indazol-4-ylmethyl)-3-methoxy-4-(1H-pyrazol-4-yl)benzamide], the IC50 stood at 7.99 nM against ROCK2 and 41.8 nM on ROCK1.

On to `COC(=O)C[C@@H](NC(=O)c1ccc(-c2cn[nH]c2)c(C)c1)c1ccccc1` [Example 155, methyl (3R)-3-{[3-methyl-4-(1H-pyrazol-4-yl)phenyl] formamido}-3-phenyl-propanoate], for which the IC50 was 70.2 nM against ROCK2 and 405 nM on ROCK1.

With `COc1cc(C(=O)N[C@@H](Cc2ccc(F)cc2)C(=O)N(C)C)ccc1-c1cn[nH]c1` [Example 119, (2S)-3-(4-fluorophenyl)-2-{[3-methoxy-4-(1H-pyrazol-4-yl)phenyl] formamido}-N,N-dimethyl-propanamide], the IC50 amounted to 1010 nM on ROCK2 and 2270 nM against ROCK1.

As for `COc1cc(C(=O)NCc2ccc(F)c(F)c2)ccc1-c1cn[nH]c1` [Example 79, N-(3,4-difluorobenzyl)-3-methoxy-4-(1H-pyrazol-4-yl)benzamide], the IC50 came out at 7.96 nM on ROCK2 and 22.8 nM at ROCK1.

`COc1cc(C(=O)NCCc2ccc(C(F)(F)F)cc2)ccc1-c1cn[nH]c1` [Example 121, 3-methoxy-4-(1H-pyrazol-4-yl)-N-{2-[4-(trifluoro-methyl)phenyl]ethyl} benzamide]: the IC50 against ROCK2 was found to be 78.1 nM; on ROCK1 it was 166 nM.

Take `COc1cc(C(=O)NC(CCO)c2ccccc2)ccc1-c1cn[nH]c1` (stereo not shown) [Example 90, N-(3-hydroxy-1-phenylpropyl)-3-methoxy-4-(1H-pyrazol-4-yl)benzamide]: the IC50 on ROCK2 was determined as 6.4 nM; against ROCK1, 12.4 nM.

Take `COc1cc(-c2cn[nH]c2)ccc1C(=O)NC(CO)c1ccccc1F` (stereo not shown) [Example 205, N-[1-(2-fluorophenyl)-2-hydroxyethyl]-2-methoxy-4-(1H-pyrazol-4-yl)benzamide]: the results for the IC50 against ROCK2 and on ROCK1 were 5.62 nM and 345 nM, respectively.

`C[C@@H](NC(=O)c1ccc(-c2cn[nH]c2)c(CO)c1)c1ccc(F)cc1` [Example 271, N-[(1R)-1-(4-Fluorophenyl)ethyl]-3-(hydroxymethyl)-4-(1H-pyrazol-4-yl)benzamide]: the IC50 on ROCK2 was determined as 75 nM; against ROCK1, 3450 nM.

With `COc1cc(-c2cn[nH]c2)ccc1C(=O)NCc1c(F)cccc1F` [Example 207, N-[(2,6-difluorophenyl)methyl]-2-methoxy-4-(1H-pyrazol-4-yl)benzamide], the IC50 at ROCK2 amounted to 4.39 nM; at ROCK1, 4.25 nM.

Take `CCNC(=O)c1cccc(CNC(=O)c2ccc(-c3cn[nH]c3)c(OC)c2)c1` [Example 237, N-{[3-(ethylcarbamoyl)phenyl]methyl}-3-methoxy-4-(1H-pyrazol-4-yl)benzamide]: the IC50 at ROCK2 was 0.4 nM; against ROCK1 it was 2.39 nM.

In the case of `COC[C@@H](NC(=O)c1ccc(-c2cn[nH]c2)c(C(C)O)c1)c1ccccc1` (stereo partly drawn) [Example 274, 3-(1-hydroxyethyl)-N-[(1S)-2-methoxy-1-phenylethyl]-4-(1H-pyrazol-4-yl)benzamide], the figures for the IC50 at ROCK2 and at ROCK1 were 263 nM and 287 nM, respectively.

Turning to `CNc1cc(C(=O)N[C@H](C)c2ccc(F)cc2)ccc1-c1cn[nH]c1` [Example 297, (R)-N-(1-(4-Fluorophenyl)ethyl)-3-(methylamino)-4-(1H-pyrazol-4-yl)benzamide], the IC50 is 518 nM against ROCK2 and 1760 nM on ROCK1.
